Test [1] concerns human melanoma cell lines (A375, Hs.294t, RPMI7951). Description: In vitro melanoma proliferation assay (CellTiterGlo). It is filed as cell-based. Particulars: A375, Hs.294t, RPMI7951; CellTiterGlo. The protocol:
Human melanoma cell lines (A375, RPMI7951, Hs.294T, MAMLE-3M) were obtained from the American Type Culture Collection. The 8988 cell line was provided by Alec Kimmelman at Dana Farber, and the PANC1 and MDA-231-MB lines were provided by Rania Hartouche at Harvard. Cells were cultured in DMEM/10% FCS at 37 C, 5% CO2. For proliferation assays, 96-well clear bottom plates were used to plate cells at a density of 5,000 cells/well (RPMI7951 and A375) or 10,000 cells/well (MAMLE-3M-3M and Hs.294T) in 100 ul containing indicated concentrations of A771726 or PLX4720 or DMSO. All conditions were tested in triplicate. Media was changed at day 2, and proliferation rate was measured at day 4 using the CellTiterGlo assay kit (Promega). All values are expressed are the % of luciferase relative to the DMSO control well. Differences between groups were statistically analyzed using a generalized linear ANOVA model taking into account factors of PLX4720, A771726 and dose. IC50's were calculated using a log-logistic model.

Test [2] concerns neural crest stem cells (NCSCs) from fetal (E14.5) rat gut. Description: Rat neural crest stem cell assays (self-renewal, colony size, differentiation). The class given is cell-based. As for the experimental part: Enteric NCSCs from the fetal (E14.5) rat gut were isolated using flow cytometry to select the 1%-2% of cells expressing the highest levels p75 and α4 integrin as previously described^9. Cells were plated at clonal density in two wells/treatment and cultured in self-renewal medium for 8 days in LEF, A771726 or the vehicle (DMSO) followed by differentiation medium+/−LEF, A771726 or DMSO for 6 days. Cultures were fixed in 4% PFA then stained with antibodies against peripherin, GFAP, and SMA to identify neurons (N), glia (G) and myofibroblasts (M) respectively (U=unstained cells). A total of 3 to 4 independent experiments were performed, and differences measured by ANOVA followed by Bonferonni posthoc comparison. Self-renewal medium contains: DMEM-low glucose, 15% Chick Embryo Extract (CEE), Penn/Strep (P/S), 1% N2 supplement, 2% B27 supplement, 110 nM Retinoic Acid, 50 μM 2-mercaptoethanol 20 ng/ml bFGF, and 20 ng/ml IGF-1. Differentiation medium is the same except it contains 1% CEE, 10 ng/ml bFGF and no IGF-1. Differences between groups were calculated using ANOVA followed by posthoc Sheffe.
Dissociated fetal rat gut cells were plated at clonal density in non-adherent conditions in self-renewal medium with LEF, a77 or DMSO for 10 days^10. Three to five primary neurospheres per treatment were individually re-plated in adherent conditions with LEF, a77 or DMSO and after three days were dissociated into a single cell suspension using trypsin and collagenase IV. Dissociated cells from each neurosphere were re-plated in non-adherent conditions without LEF or a77 and after 10 days, the number of secondary neurospheres were counted and compared. To assess the number of multipotent primary and secondary neurospheres, a subset of neurospheres were plated adherently for 8 days in self-renewal medium followed by 6 days in differentiation medium. Cultures were fixed in 4% PFA and stained with antibodies against peripherin, GFAP, and SMA to identify neurons (N), glia (G) and myofibroblasts (M) respectively. A total of 5 independent experiments were analyzed, and the number of multipotent secondary neurospheres on a given day are normalized to the DMSO control wells, and differences calculated by ANOVA.

Results on 1 compound are retold here after patent publication US10646478B2, “Methods for treatment of melanoma” (CHILDREN'S MEDICAL CENTER CORPORATION, priority 2011, dated 2020).

Take `Cc1oncc1C(=O)Nc1ccc(C(F)(F)F)cc1` [leflunomide]: the “proliferation of human melanoma cell lines” value in test [1] was “dose-dependent decrease in melanoma proliferation”. Moreover, in test [2], the “colony size reduced compared to controls” value is 18%, the “differentiation or survival of specific progeny” value was “no effect on differentiation or survival of specific progeny” and the “number of self-renewing NCSCs from primary stem cell colonies” value is 27+/−5.35 % of controls.
